From ChEMBL document CHEMBL1158917, “Elabunin, a New Cytotoxic Triterpene from an East African Medicinal Plant, Elaeodendron buchananii” (1990)
In brackets after ≈: the same amount, converted by molar mass.

Tested on: L1210
Assay: Cytotoxicity against mouse L1210 cells
Assay type: functional
Settings: read-out: ED50 (the source's name)

With `C=C(CCC=C(C)C)[C@H]1[C@H](O)C[C@]2(C)[C@@H]1CC[C@@H]1[C@@]3(C)CCC(=O)C(C)(C)[C@@H]3CC[C@]12C` [ELABUNIN] the EC50 was 1 µg/mL (≈ 2.27 µM).
